Reference: patent US11649209B2, “Crystalline freebase forms of a biphenyl compound” (THERAVANCE BIOPHARMA R&D IP, LLC, priority 2009, dated 2023)
Converted amounts (≈) assume the structure as drawn. Read-outs that look alike come from different tables or passages of the source. Blank lines part the entries; values can stand above or below the molecule they belong to.

What was measured:
[1] = Gravimetric vapor sorption assessment; type: physicochemical
Procedure: Gravimetric vapor sorption (GVS) studies were performed using a Surface
Measurements System DVS-1 instrument for generation of full sorption isotherm using water vapor perfusion at 25° C. A sample size of approximately 7 mg was placed into a clean and dry tared sample mesh pan and weighed using the internal balance. The target relative humidity (RH) ranges were from 30% to 90%, then 90% to 0% and 0% to 30% with 10% steps. The point of equilibrium was automatically determined using a 0.02 dm/dt asymptote setting.

[2] = Micronization, particle size by laser light diffraction; type: physicochemical
Source text: Samples of the crystalline freebase Form III were micronized using either an APTM 4″ micronizer and the particle size determined buy laser light diffraction.

[3] = Storage stability of micronized material (PXRD, DSC); type: physicochemical; conditions: 3 months at 40° C./20% RH, 50° C./ambient humidity
Procedure: For reference, the particle size of the input crystalline freebase Form III was X10=5.58 μm X50=18.2 μm, and X90=49.7 μm. Micronization yielded particles in the respirable size range.
There was an additional small thermal event in the micronized material at 87° C., likely due to crystallization.

pH solubility = type: physicochemical; conditions: for solubility: thermodynamic from solid
Procedure: Solubility in water is 0.66 mg/mL with a natural pH of 8.9.

Solution stability = type: physicochemical
Procedure: The crystalline freebase Form III solutions are stable in pH 4 and pH 6 buffers for up to 7 days at 50° C. or exposed to light. The solutions are stable in water and saline for 7 days at room temperature, protected from light.

[4] = Exposure to atmospheric moisture, elevated temperature and humidity; type: physicochemical
[5] = target: T1, M3 muscarinic receptor subtype (Homo sapiens, UniProt P20309); experiment: Radioligand binding assay ([3H]-NMS displacement) on muscarinic receptor subtypes; conditions: this or a similar assay
T1 construct: expressed in transfected cells
Procedure: CHO cell lines stably expressing cloned human hM1, hM2, hM3 and hM4 muscarinic receptor subtypes, respectively, were grown to near confluency in medium consisting of HAM's F-12 supplemented with 10% FBS and 250 μg/mL Geneticin. The cells were grown in a 5% CO2, 37° C. incubator and lifted with 2 mM EDTA in dPBS. Cells were collected by 5 minute centrifugation at 650×g, and cell pellets were either stored frozen at −80° C. or membranes were prepared immediately. For membrane preparation, cell pellets were resuspended in lysis buffer and homogenized with a Polytron PT-2100 tissue disrupter (Kinematica AG; 20 seconds×2 bursts). Crude membranes were centrifuged at 40,000×g for 15 minutes at 4° C. […] The protein concentration of the membrane suspension was determined by the method described in Lowry, O. et al.,Journal of Biochemistry 193:265 (1951). […]
Radioligand binding assays were performed in 96-well microtiter plates in a total assay volume of […]. […] Filter plates were rinsed three times with wash buffer (10 mM HEPES) to remove unbound radioactivity. […] The plates were then counted in a PerkinElmer Topcount liquid scintillation counter (PerkinElmer Inc., Wellesley, Mass.). Binding data were analyzed by nonlinear regression analysis with the GraphPad Prism Software package (GraphPad Software, Inc., San Diego, Calif.) using the one-site competition model. […]

hM3 receptor = target: T2, hM3 receptor (Homo sapiens, UniProt P20309); experiment: Blockade of agonist-mediated calcium release via FLIPR; type: cell-based; conditions: CHO cells stably expressing the hM3 receptor
T2 construct: expressed in transfected cells
Source text: Muscarinic receptor subtypes (M1, M3 and M5 receptors), which couple to Gq proteins, activate the phospholipase C (PLC) pathway upon agonist binding to the receptor. As a result, activated PLC hydrolyzes phosphatyl inositol diphosphate (PIP2) to diacylglycerol (DAG) and […] (IP3), which in turn generates calcium release from intracellular stores, i.e., endoplasmic and sarcoplasmic reticulum. The FLIPR (Molecular Devices, Sunnyvale, Calif.) assay capitalizes on this increase in intracellular calcium by using a calcium sensitive dye (Fluo-4AM, Molecular Probes, Eugene, Oreg.) that fluoresces when free calcium binds. This fluorescence event is measured in real time by the FLIPR, which detects the change in fluorescence from a monolayer of cells cloned with human M1 and M3, and chimpanzee M5 receptors. Antagonist potency can be determined by the ability of antagonists to inhibit agonist-mediated increases in intracellular calcium. […]
To determine antagonist potency, the dose-dependent stimulation of intracellular Ca^2+ release for oxotremorine is first determined so that antagonist potency can later be measured against oxotremorine stimulation at an EC90 concentration. […]
The change of fluorescence is expressed as maximum fluorescence minus baseline fluorescence for each well. […]

MCh response = experiment: Rat Einthoven assay (bronchoprotection against MCh); type: in vivo; conditions: for ID50: 1.5 hrs post-dose, inhalation
Procedure: All test compounds are diluted in sterile water and are dosed via the inhalation route (IH). […] Each test compound solution is nebulized over a 10 minute time period in a pie shaped dosing chamber capable of holding six rats. At predetermined time points after inhalation of compound, the Einthoven assay is performed. […] The jugular vein is catheterized with saline filled polyethylene catheters (PE-50) and used to infuse MCh. The trachea is then dissected and cannulated with a 14G needle and used for rat ventilation during pulmonary evaluation. Once surgery is complete, rats are ventilated using a piston respirator set at a stroke volume of 1 ml/100 g body weight but not exceeding 2.5 ml volume, and at a rate of 90 strokes per minute. The changes in pressure that occur with each breath are measured. […] The MCh is infused for 2.5 minutes from a syringe pump at a rate of 2 mL/kg/min. The animals are euthanized upon completion of the studies. Changes in ventilation pressure (cm H2O) in treated animals are expressed as % inhibition of MCh response relative to control animals.

[6] = system: pilocarpine-induced salivation; experiment: Rat antisialagogue assay; type: in vivo; conditions: evaluated at 1, 6 and 24 hr post-dose
Procedure: Rats (Sprague-Dawley, male, 250-350 g) are dosed, anesthetized and cannulated as described for Assay 3. At predetermined time points and after surgery, animals are placed on their dorsal side at a 20° incline with their head in a downward slope. A pre-weighed gauze pad is inserted in the animal's mouth and the muscarinic agonist pilocarpine (PILO) (3 mg/kg, iv.) is administered. Saliva produced during 10 minutes post-PILO is measured gravimetrically by determining the weight of the gauze pad before and after PILO. Antisialagogue effects are expressed as % inhibition of salivation relative to control animals.
The rat antisialagogue assay was developed to assess systemic exposure and calculate the lung selectivity index (LSI) of test compounds. The standard, tiotropium, was evaluated in this model at 1, 6, and 24 hr post-dose. […] This finding is consistent with the peak effects observed in the Einthoven assay.
This model is a modified version of the procedure described in Rechter, “Estimation of anticholinergic drug effects in mice by antagonism against pilocarpine-induced salivation” Ata Pharmacol Toxicol 24:243-254 (1996). The mean weight of saliva in vehicle-treated animals, at each pre-treatment time, is calculated and used to compute % inhibition of salivation, at the corresponding pre-treatment time, at each dose.

[7] = input material before micronization

T2 sequence (P20309 whole entry): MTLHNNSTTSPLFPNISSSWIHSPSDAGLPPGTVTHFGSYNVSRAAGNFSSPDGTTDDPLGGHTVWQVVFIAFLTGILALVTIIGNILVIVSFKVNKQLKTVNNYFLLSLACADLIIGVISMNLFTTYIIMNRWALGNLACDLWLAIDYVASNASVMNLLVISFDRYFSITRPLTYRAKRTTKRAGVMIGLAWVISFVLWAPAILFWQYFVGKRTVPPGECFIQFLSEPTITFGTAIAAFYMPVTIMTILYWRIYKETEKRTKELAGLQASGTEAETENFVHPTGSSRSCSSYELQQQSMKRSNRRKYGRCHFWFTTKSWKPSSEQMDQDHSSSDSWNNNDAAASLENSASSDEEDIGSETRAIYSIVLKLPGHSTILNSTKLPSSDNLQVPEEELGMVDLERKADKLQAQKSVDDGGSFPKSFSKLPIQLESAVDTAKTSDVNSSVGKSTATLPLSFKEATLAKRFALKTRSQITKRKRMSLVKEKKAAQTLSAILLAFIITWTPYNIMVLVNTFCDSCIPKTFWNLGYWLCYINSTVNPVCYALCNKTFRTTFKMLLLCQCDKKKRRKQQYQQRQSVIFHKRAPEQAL
T1 sequence (P20309 whole entry): as above

- reversible water uptake ([1]; between 0 and 90% RH at 25° C.): < 2 % w/w
- reversible water uptake ([1]; between 0 and 90% relative humidity at 25° C.): < 2 % wt/wt
- Particle size X10 [2, 7]: 5.58 μm
- Particle size X50 [2, 7]: 18.2 μm
- Particle size X90 [2, 7]: 49.7 μm
- Particle size X10 ([2]; micronized material): 1.27 μm
- Particle size X50 ([2]; micronized material): 2.69 μm
- Particle size X90 ([2]; micronized material): 5.25 μm
- change in PXRD after storage ([3]; 40° C./75% RH (uncapped)): No changes were observed
- amorphous content by DSC after storage ([3]; 40° C./75% RH naked): no evidence of amorphous content
- solubility (pH solubility; aqueous buffer, in media up to pH 7, read-out: Solubility): > 2000 µg/mL
- natural pH in water (pH solubility; at solubility in water): 8.9
- solubility (pH solubility; simulated lung fluid, fassgf or other biorelevant, no change between 4 hour and 24 hour measurements, read-out: Solubility in simulated lung fluid): 460 µg/mL (≈ 770 µM)
- solubility (pH solubility; water, pH 8.9, water, natural pH of 8.9, read-out: Solubility in water): 660 µg/mL (≈ 1100 µM)
- solution stability in water and saline (Solution stability; 7 days at room temperature, protected from light): stable
- solution stability in buffers (Solution stability; pH 4 and pH 6 buffers, up to 7 days at 50° C. or exposed to light): stable
- stability upon exposure to elevated temperature and humidity [4]: stable
Compound: CN(CCN1CCC(OC(=O)Nc2ccccc2-c2ccccc2)CC1)C(=O)c1ccc(CN2CCC(C(N)=O)CC2)cc1 [Form III, Biphenyl-2-ylcarbamic Acid 1-(2-{[4-(4-Carbamoylpiperidin-1-ylmethyl)benzoyl]methylamino}ethyl)piperidin-4-yl Ester]

- Ki [5]: < 5 nM
- Ki (hM3 receptor): < 5 nM
Compound: CN(CCN1CCC(OC(=O)Nc2ccccc2-c2ccccc2)CC1)C(=O)c1ccc(CN2CCC(C(N)=O)CC2)cc1 [compound of formula I, biphenyl-2-ylcarbamic acid 1-(2-{[4-(4-carbamoylpiperidin-1-ylmethyl)benzoyl]methylamino}ethyl)piperidin-4-yl ester]

Compound: C[N+]1(C)CCC(OC(=O)C(O)(c2ccccc2)C2CCCC2)C1 (centres unmarked) [glycopyrrolate]
- ID50 (MCh response): 15 µg/mL

Compound: CC(C)[N+]1(C)[C@@H]2CC[C@H]1C[C@@H](OC(=O)C(CO)c1ccccc1)C2 (some centres unmarked) [ipratropium]
- fold less potent 6-hr post-dose compared to 1.5 hr potency (MCh response; 10 and 30 μg/ml, 6 hr post-dose): about 3 fold
- ID50 (MCh response): 4.4 µg/mL

Compound: C[N+]1(C)[C@@H]2C[C@@H](OC(=O)C(O)(c3cccs3)c3cccs3)C[C@H]1[C@@H]1O[C@@H]12 [tiotropium]
- ID50 (MCh response): 6 µg/mL
- fold more potent at 6 hr and 24 hr compared to 1.5 hr potency (MCh response; 6 hr and 24 hr post-dose): about 2 fold
- time of peak bronchoprotection post-dose (MCh response; slow onset of effect): 6 h
- time post dose of highest potency at inhibiting pilocarpine-induced salivation [6]: 6 h
